Tests used:
Calvarial cell = assay: Cytotoxicity test (MTT) in osteoblasts (calvarial cells); conditions: 1 μM, 72 hours, vs vehicle control
Procedure: Drugs were diluted to a concentration of 2 μM in α-MEM culture media supplemented with 10% FBS. The vehicle control group was established to contain 0.2% DMSO. 100 μL/well of the diluted drugs were dispensed into 96-well plates to which osteoblasts (calvarial cells) prepared in Experimental Example 1 were then added at a density of 1.0×10^4 cells/100 μL/well. Here, the final compound concentration in the cell culture was 1 μM, and the vehicle control group contained 0.1% DMSO. The cells were cultured in a 5% CO2 inhibitorr at 37° for 72 hours. 25 μL of 3-(4,5-dimethyl-2-thiazolyl)-2,5-diphenyl-2H-tetrazolium bromide (MTT) dissolved in PBS (2 mg/mL) was added to each cell culture 4 hours before the end of culture. After completion of the reaction, the plates were centrifuged, the media were discarded, and 100 μL of formazan was added and dissolved in dimethyl sulfoxide (DMSO). Finally, the absorbance of the developed plates was measured at 540 nm. The cell viability was expressed as % concentration in comparison with the vehicle control group.

[1] = system: osteoclastogenesis (formation of multinucleated osteoclasts); assay: Osteoclastogenesis inhibition via co-culture system (bone marrow cells + osteoblasts, TRAP staining); format: cell-based, mouse; conditions: Mus musculus, Osteoclast, 168 h, 7 days co-culture, vs vehicle control
Procedure: Osteoclastogenesis inhibitory effects of the compounds of the present invention were evaluated via a co-culture system (Reference: Endocrinology 137(1996), 2187 to 2190, E. Jimi et al.). A specific experimental method is as follows.
1) Preparation of Bone Marrow Cells and Osteoblasts
Femur and tibia were aseptically dissected from 6 to 8-week-old male ddY mice to harvest bone marrow cells by a conventional method using a syringe. In brief, tissues were removed from the dissected bone, the bone ends were cut off with scissors, and the bone marrow was isolated by pushing a medium-containing syringe (23G) against the one end of the cut bone. The isolated bone marrow was subjected to repeated piston movement of a syringe such that single cells were obtained (Reference: Endocrinology 123(1988), 2600 to 2602, Takahashi et al.). After removal of red blood cells within the bone marrow, the bone marrow cells recovered by centrifugation were placed in an α-MEM supplemented with 10% fetal bovine serum (FBS), followed by counting of nucleated cells and then were immediately used for a co-culture system.
For the preparation of osteoblasts (Calvarial cells), the cranial bone were aseptically dissected from 1 to 2-day-old neonatal ICR mice and subjected to continuous reaction with a 0.2% collagenase solution to separate osteoblasts. The cell-suspended supernatant was centrifuged to recover osteoblasts which were grown to full confluence in an α-MEM supplemented with 10% FBS and then diluted to a desired cell density for use in the experiment.
2) Osteoclastogenesis Inhibition Experiment Via Co-Culture System
As the medium used for a co-culture system, a differentiation medium with the addition of differentiation factors 1α,25-dihydroxyvitamin D3 (10^−8M) and dexamethasone (10^−8M) to α-MEM supplemented with 10% FBS was used for the induction of osteoclastogenesis. First, the compounds of the present invention dissolved in dimethyl sulfoxide (DMSO) at a concentration of 1 mM were diluted to 2 μM using the above-mentioned differentiation medium. As a vehicle control group, 0.2% (v/v) DMSO was added to the medium. 100 μL/well of each medium was added to 96-well plates. In addition, the above prepared bone marrow cells and osteoblasts were plated onto 96-well plates at a density of 1×10^5 cells/50 μL/well and 3×10^3 cells/50 μL/well, respectively. The total volume/well was 200 μL and the final compound concentration was 1 μM. The control group was 0.1% (v/v) DMSO. The cells were cultured with exchange of the culture media with fresh media containing differentiation factors and test materials (materials containing the compounds of the present invention) at an interval of 2 to 3 days.
7 days after culturing of cells, the formation of multinucleated osteoclasts was confirmed by microscopic examination, the medium was removed from the wells and then the cells were fixed in a 10% phosphate-buffered formalin solution. The degree of formation of mature osteoclasts was measured taking advantage of the characteristics of osteoclasts showing a positive reaction to a tartrate-resistant acid phosphatase (TRAP) staining solution. The TRAP staining solution was prepared in a manner such that naphthol AS-MS phosphate as a substrate and a coloring agent (Fast Red Violet LB salt) were dissolved in N,N-dimethylformamide, and a 0.1N NaHCO3 buffer solution containing 50 mM of tartaric acid was added thereto. Among the TRAP-positive cells under a light microscope, multinucleated osteoclasts having 6 to 7 nuclei were regarded as mature osteoclasts.
The degree of inhibition of osteoclastogenesis was calculated according to the following equation 1. The results are summarized in Table 2 below (Experiments were carried out for 4 wells/experimental group (n=4), and the results are given in terms of mean±standard deviation) […]

## C[C@@H](CO)Nc1ccc([N+](=O)[O-])c(Nc2ccc3cn[nH]c3c2)n1 [Compound 18, 2-(1H-indazol-6-yl)amino-6-[(1-(S)-methyl-2-hydroxyethyl)-amino]-3-nitropyridine]
Calvarial cell
  Cell viability (%) Calvarial cell: 98%

## O=[N+]([O-])c1ccc(NCc2ccncc2)nc1Nc1ccc2[nH]ncc2c1 [Compound 47, 2-(1H-indazol-5-yl)amino-6-[(4-pyridyl)methylamino]-3-nitropyridine]
[1]
  inhibition at 1 µM: 71%
Calvarial cell
  Cell viability (%) Calvarial cell: 102%

## O=[N+]([O-])c1ccc(NCCc2ccccn2)nc1Nc1ccc2[nH]ncc2c1 [Compound 27, 2-(1H-indazol-5-yl)amino-6-[(2-pyridyl)ethylamino]-3-nitropyridine]
[1]
  inhibition at 1 µM: 90%
Calvarial cell
  Cell viability (%) Calvarial cell: 97%

## CNc1ccc([N+](=O)[O-])c(Nc2ccc3cn[nH]c3c2)n1 [Compound 31, 2-(1H-indazol-6-yl)amino-6-(methylamino)-3-nitropyridine]
Calvarial cell
  Cell viability (%) Calvarial cell: 97%

## O=[N+]([O-])c1ccc(N2CCC(O)CC2)nc1Nc1ccc2cn[nH]c2c1 [Compound 41, 2-(1H-indazol-6-yl)amino-6-(4-hydroxypiperidino)-3-nitropyridine]
Calvarial cell
  Cell viability (%) Calvarial cell: 98%

## C[C@@H](CO)Nc1ccc([N+](=O)[O-])c(Nc2ccc3[nH]ncc3c2)n1 [Compound 36, 2-(1H-indazol-5-yl)amino-6-[(1-(S)-methyl-2-hydroxyethyl)-amino]-3-nitropyridine]
[1]
  inhibition at 1 µM: 72%
Calvarial cell
  Cell viability (%) Calvarial cell: 103%

## CN1CCN(c2ccc([N+](=O)[O-])c(Nc3ccc4cn[nH]c4c3)n2)CC1 [Compound 40, 2-(1H-indazol-6-yl)amino-6-(4-methylpiperazin-1-yl)-3-nitropyridine]
Calvarial cell
  Cell viability (%) Calvarial cell: 95%

## O=[N+]([O-])c1ccc(NCc2cccnc2)nc1Nc1ccc2cn[nH]c2c1 [Compound 46, 2-(1H-indazo-6-yl)amino-6-[(3-pyridyl)methylamino]-3-nitropyridine]
Calvarial cell
  Cell viability (%) Calvarial cell: 99%

## Cc1cncn1-c1ccc([N+](=O)[O-])c(Nc2ccc3[nH]ncc3c2)n1 [Compound 4, 2-(1H-indazol-5-yl)amino-6-(5-methylimidazol-1-yl)-3-nitropyridine]
[1]
  inhibition at 1 µM: 67%
Calvarial cell
  Cell viability (%) Calvarial cell: 101%

## CN1CCN(Nc2ccc([N+](=O)[O-])c(Nc3ccc4[nH]ncc4c3)n2)CC1 [Compound 42, 2-(1H-indazol-5-yl)amino-6-[(4-methylpiperazin-1-yl)amino]-3-nitropyridine]
Calvarial cell
  Cell viability (%) Calvarial cell: 106%

## O=[N+]([O-])c1ccc(NCCN2CCOCC2)nc1Nc1ccc2cn[nH]c2c1 [Compound 28, 2-(1H-indazol-6-yl)amino-6-(2-morpholinoethylamino)-3-nitropyridine]
[1]
  inhibition at 1 µM: 74%
Calvarial cell
  Cell viability (%) Calvarial cell: 104%

## CC1(C)CN(c2ccc([N+](=O)[O-])c(Nc3ccc4[nH]ncc4c3)n2)CC(C)(C)N1 [Compound 13, 2-(1H-indazol-5-yl)amino-6-(2,2,6,6-tetramethylpiperazin-4-yl)-3-nitropyridine]
[1]
  inhibition at 1 µM: 88%
Calvarial cell
  Cell viability (%) Calvarial cell: 94%

## Cc1nccn1-c1ccc([N+](=O)[O-])c(Nc2ccc3[nH]ncc3c2)n1 [Compound 2, 2-(1H-indazol-5-yl)amino-6-(2-methylimidazol-1-yl)-3-nitropyridine]
[1]
  inhibition at 1 µM: 70%
Calvarial cell
  Cell viability (%) Calvarial cell: 104%

## CC(C)(C)NNc1ccc([N+](=O)[O-])c(Nc2ccc3[nH]ncc3c2)n1 [Compound 43, 2-(1H-indazol-5-yl)amino-6-[(t-butylamino)amino]-3-nitropyridine]
Calvarial cell
  Cell viability (%) Calvarial cell: 100%

## O=[N+]([O-])c1ccc(NCc2cccnc2)nc1Nc1ccc2[nH]ncc2c1 [Compound 45, 2-(1H-indazol-5-yl)amino-6-[(3-pyridyl)methylamino]-3-nitropyridine]
Calvarial cell
  Cell viability (%) Calvarial cell: 103%

## NCCCCNc1ccc([N+](=O)[O-])c(Nc2ccc3[nH]ncc3c2)n1 [Compound 50, 2-(1H-indazol-5-yl)amino-6-(4-amino-n-butylamino)-3-nitropyridine]
[1]
  inhibition at 1 µM: 100%
Calvarial cell
  Cell viability (%) Calvarial cell: 95%

## O=[N+]([O-])c1ccc(NCCCn2ccnc2)nc1Nc1ccc2[nH]ncc2c1 [Compound 29, 2-(1H-indazol-5-yl)amino-6-[3-(imidazol-1-yl)propylamino]-3-nitropyridine]
[1]
  inhibition at 1 µM: 73%
Calvarial cell
  Cell viability (%) Calvarial cell: 117%

## Nc1ccc([N+](=O)[O-])c(Nc2ccc3[nH]ncc3c2)n1 [Compound 32, 2-(1H-indazol-5-yl)amino-6-amino-3-nitropyridine]
[1]
  inhibition at 1 µM: 100%
Calvarial cell
  Cell viability (%) Calvarial cell: 99%

## O=[N+]([O-])c1ccc(N2CCNCC2)nc1Nc1ccc2cn[nH]c2c1 [Compound 38, 2-(1H-indazol-6-yl)amino-6-(piperazin-1-yl)-3-nitropyridine]
[1]
  inhibition at 1 µM: 90%
Calvarial cell
  Cell viability (%) Calvarial cell: 91%

## CC1CN(c2ccc([N+](=O)[O-])c(Nc3ccc4[nH]ncc4c3)n2)CC(C)N1 (centres unmarked) [Compound 44, 2-(1H-indazol-5-yl)amino-6-(3,5-dimethylpiperazin-1-yl)-3-nitropyridine]
[1]
  inhibition at 1 µM: 90%
Calvarial cell
  Cell viability (%) Calvarial cell: 96%

## NC1CCN(c2ccc([N+](=O)[O-])c(Nc3ccc4[nH]ncc4c3)n2)CC1 [Compound 51, 2-(1H-indazol-5-yl)amino-6-[(4-amino)piperidino]-3-nitropyridine]
Calvarial cell
  Cell viability (%) Calvarial cell: 73%

## NC1CCCCC1Nc1ccc([N+](=O)[O-])c(Nc2ccc3[nH]ncc3c2)n1 (centres unmarked) [Compound 30, 2-(1H-indazol-5-yl)amino-6-[(2-aminocyclohexyl)amino]-3-nitropyridine]
[1]
  inhibition at 1 µM: 100%
Calvarial cell
  Cell viability (%) Calvarial cell: 114%

## O=[N+]([O-])c1ccc(NCCc2c[nH]cn2)nc1Nc1ccc2[nH]ncc2c1 [Compound 48, 2-(1H-indazol-5-yl)amino-6-[(imidazol-4-yl)ethylamino]-3-nitropyridine]
Calvarial cell
  Cell viability (%) Calvarial cell: 96%

## O=[N+]([O-])c1ccc(N2CCN(CCO)CC2)nc1Nc1ccc2[nH]ncc2c1 [Compound 15, 2-(1H-indazol-5-yl)amino-6-[4-(2-hydroxyethyl)piperazin-1-yl]-3-nitropyridine]
[1]
  inhibition at 1 µM: 98%
Calvarial cell
  Cell viability (%) Calvarial cell: 90%

From patent publication US20110306641A1, “NOVEL 2,6-SUBSTITUTED-3-NITROPYRIDINE DERIVATIVE, METHOD FOR PREPARING SAME, AND PHARMACEUTICAL PREPARATION INCLUDING SAME” (priority 2008, published 2011)
